pIC50: −log10 of the molar value.
Target: Fructose-1,6-bisphosphatase 1 (Sus scrofa) (UniProt P00636)
Assay: Concentration required for 50% Inhibition against recombinant wild type pig enzyme (F16BP) Fructose-1,6-bisphosphatase

Chain of Fructose-1,6-bisphosphatase 1 (Sus scrofa) (P00636 whole entry, looked up): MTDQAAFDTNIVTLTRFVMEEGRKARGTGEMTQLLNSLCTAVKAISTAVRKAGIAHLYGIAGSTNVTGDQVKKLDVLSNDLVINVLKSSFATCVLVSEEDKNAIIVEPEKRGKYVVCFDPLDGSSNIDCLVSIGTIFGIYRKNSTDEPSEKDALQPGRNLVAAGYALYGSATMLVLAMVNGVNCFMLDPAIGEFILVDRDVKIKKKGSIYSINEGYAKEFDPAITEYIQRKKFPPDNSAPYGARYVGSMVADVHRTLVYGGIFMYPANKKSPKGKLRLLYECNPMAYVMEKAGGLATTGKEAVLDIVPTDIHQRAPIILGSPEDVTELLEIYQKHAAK

CCOc1cc2nc(CN(C)C)nc(Nc3cccc(-c4csc(C(N)=O)n4)c3)c2cc1OCC [4-[3-(2-Dimethylaminomethyl-6,7-diethoxy-quinazolin-4-ylamino)-phenyl]-thiazole-2-carboxylic acid amide]
pIC50: 5.02

Reference: BindingDB's records for doi:10.1021/jm010496a (Pfizer, 2002)
